Source: patent US12325694B2, “Co-crystalline form of efinaconazole and method for preparing the same” (Daebong Ls Co., Ltd., priority 2019, dated 2025)

Assay: Stability test: HPLC purity after standing in solution at different temperatures
Type: physicochemical
Settings: Solution (10%)
Procedure: The stabilities of the co-crystals of efinaconazole to temperature and a solution were evaluated and compared by the following experimental method.

With `C=C1CCN([C@H](C)[C@](O)(Cn2cncn2)c2ccc(F)cc2F)CC1` [Efinaconazole, efinaconazole] the “HPLC (%)” value (65 °C (oven), after 1 week) was 99.55%, the “Related substances (%)” value (65 °C (oven), after 1 week) was 0.45% and the “HPLC (%)” value (65 °C (oven), after 2 weeks) was 99.46%. For the same compound, the “Related substances (%)” value (65 °C (oven), after 2 weeks) was 0.54%, the “HPLC (%)” value (65 °C (oven), after 4 weeks) was 98.47% and the “Related substances (%)” value (65 °C (oven), after 4 weeks) was 1.53%. For the same compound, the “HPLC (%)” value (room temp., after 1 week) was 99.73%, the “Related substances (%)” value (room temp., after 1 week) was 0.27% and the “HPLC (%)” value (room temp., after 2 weeks) was 99.61%. The “Related substances (%)” value (room temp., after 2 weeks) was 0.39%, the “HPLC (%)” value (room temp., after 4 weeks) was 99.60% and the “Related substances (%)” value (room temp., after 4 weeks) was 0.40%.
